# In patent US20160206580A1, “[…] LIPOSOME FORMULATIONS OF TRANEXAMIC ACID” (Pacira Pharmaceuticals, Inc., priority 2015, published 2016):
# Where two headings read alike, the source gives them in different places.
# Columns and labels:
# [1] = Toxicokinetics of TXA in plasma after subcutaneous injection; assay type: in vivo, beagle dog
# Protocol: (§1) The objectives of this study were to determine the potential toxicity of TXA formulations, when given by subcutaneous injection to the beagle dog and to evaluate the potential reversibility of any findings, in comparison to the Reference Control Item, Tranexamic acid. In addition, the toxicokinetic profiles were determined.
# (§2) The Test, Reference Control and Reference Items were administered to the appropriate animals via subcutaneous injection into the scapular and mid-dorsal areas on Days 1, 4, 7, and 10. The dose volume for each animal was based on the most recent body weight measurement. The volume for each dose was administered using a syringe/needle over one injection. Injection sites were rotated between two delimited sites (and the same site for all animals on a given day). Dosing area was shaved as needed and injection sites were marked with a pen (target area of 5 cm×5 cm). The first dosing site was in the mid-scapular region of the back and the second dosing site was caudal to the first site in the mid-dorsum region.
# Blood was collected from the jugular vein (or cephalic vein) from all animals in lithium heparin-containing tubes.
# Samples were mixed gently and placed on crushed wet ice until centrifugation, which was carried out as soon as practical. The samples were centrifuged for 10 minutes in a refrigerated centrifuge (set to maintain the temperature at 4° C.) at 2700 rpm. The resultant plasma was separated, transferred to uniquely labeled clear polypropylene tubes, and frozen immediately over dry ice and transferred to a freezer set to maintain −80° C.
# Plasma samples were analyzed for concentration of the tranexamic acid using a validated analytical procedure.
# Toxicokinetic parameters were generated from the test item (tranexamic acid) individual concentrations in plasma from Days 1 and 10, whenever practical.
# beagle dog = assay: Evaluation of toxicity of subcutaneous administration; assay type: in vivo; conditions: sc
# Protocol: as §1
# 21 male and 21 female beagle dogs were used in this study. The animals were from 6 to 7 months old and weighed between 7.5 and 9.8 kg (males) and 6.0 and 8.2 kg (females) at initiation of dosing.
# as §2
# Blood was collected from the jugular vein. Urine was collected overnight from individually housed animals. […]
# [2] = Percent free (unencapsulated) TXA in the formulation; assay type: physicochemical; conditions: formulations dosed in the rat PK study (Table 2)
# Source text: The present embodiments provide pharmaceutical formulations comprising multivesicular liposomes (MVLs) containing tranexamic acid (TXA) which minimize the side effects of TXA while maintaining or improving efficacy and lengthening the duration of the effect. The present embodiments also provide pharmaceutical formulations comprising TXA encapsulated in the MVLs and unencapsulated TXA. The term “unencapsulated” as used herein, means that the biologically active ingredient (e.g., tranexamic acid) is outside the MVL particles, for example, in the suspending solution. The unencapsulated TXA provides immediate efficacy of TXA while the use of TXA encapsulated MVLs formulations in the instant embodiments results in the release of TXA for an extended period. The processes of preparing the DEPO-TXAs and the methods of using the DEPO-TXA formulations for treating, ameliorating, or preventing blood loss are also disclosed herewith. […]
# For the 40 mg/mL formulation, % PPV is about 50.0% and the assumed interstitial volume (mL) is about 20%, rendering about 62% free TXA outside of the multivesicular liposomes. […] During the first 12 h, the released TXA contributes to the initial TXA peak measured in the plasma. […]
compound,measurement,setting,value
"NC[C@H]1CC[C@H](C(=O)O)CC1 [TXA, tranexamic acid]",mean peak exposures (Cmax) higher for the free TXA group than DepoTXA,"[1]; 120 mg/kg dose level, Day 1",28%
same,peak TXA levels lower for the free TXA group than DepoTXA,"[1]; 120 mg/kg dose level, Day 10, after fourth and final sc dose",14%
same,administered TXA cleared after 12 hours (percent of total AUC),"[1]; beagle dog, sc, FIGS. 5A, 5B",94%
same,time to exposure to nearly the full TXA dose,"[1]; beagle dog, sc, FIGS. 6A, 6B",less than 24 hours
same,AUC(0-t),"[1]; beagle, dog, plasma, sc, 120 mg/kg, beagle dog, sc, 120 mg/kg/dose, Day 1, read-out: AUC0-72",490 µg·h/mL
same,Cmax,"[1]; beagle, dog, plasma, sc, 120 mg/kg, beagle dog, sc, 120 mg/kg/dose, Day 1, read-out: Cmax",140 µg/mL
same,Tmax,"[1]; beagle, dog, plasma, sc, 120 mg/kg, beagle dog, sc, 120 mg/kg/dose, Day 1, read-out: Tmax",1.2 h
same,half-life,"[1]; beagle, dog, plasma, sc, 120 mg/kg, beagle dog, sc, 120 mg/kg/dose, Day 1, read-out: t1/2 (converted)",25.7 h
same,AUC(0-t),"[1]; beagle, dog, plasma, sc, 120 mg/kg, beagle dog, sc, 120 mg/kg/dose, Day 10, read-out: AUC0-72",484 µg·h/mL
same,Cmax,"[1]; beagle, dog, plasma, sc, 120 mg/kg, beagle dog, sc, 120 mg/kg/dose, Day 10, read-out: Cmax",119 µg/mL
same,Tmax,"[1]; beagle, dog, plasma, sc, 120 mg/kg, beagle dog, sc, 120 mg/kg/dose, Day 10, read-out: Tmax",1.1 h
same,half-life,"[1]; beagle, dog, plasma, sc, 120 mg/kg, beagle dog, sc, 120 mg/kg/dose, Day 10, read-out: t1/2 (converted)",28.9 h
same,half-life,"[1]; beagle, dog, plasma, sc, 120 mg/kg, mean±SD, sc, 120 mg/kg, Day 1, read-out: Mean terminal elimination half-life (t1/2elim) (converted)",25.7 ± 2 h
same,half-life,"[1]; beagle, dog, plasma, sc, 120 mg/kg, mean±SD, sc, 120 mg/kg, Day 10, read-out: Mean terminal elimination half-life (t1/2elim) (converted)",28.9 ± 2.9 h
same,Cmax,"[1]; both sexes, beagle, dog, plasma, sc, 120 mg/kg, genders combined mean, sc, 120 mg/kg, Day 10, read-out: mean peak levels (Cmax)",119 ± 15.4 µg/mL
same,AUC(0-t),"[1]; both sexes, beagle, dog, plasma, sc, 120 mg/kg, mean±SD, n=10, genders combined, sc, 120 mg/kg, Day 1, read-out: AUC0-24",475 ± 35.1 µg·h/mL
same,AUC(0-t),"[1]; both sexes, beagle, dog, plasma, sc, 120 mg/kg, mean±SD, n=10, genders combined, sc, 120 mg/kg, Day 1, read-out: AUC0-48",485 ± 36.1 µg·h/mL
same,AUC(0-t),"[1]; both sexes, beagle, dog, plasma, sc, 120 mg/kg, mean±SD, n=10, genders combined, sc, 120 mg/kg, Day 1, read-out: AUC0-72",490 ± 36.5 µg·h/mL
same,Tmax,"[1]; both sexes, beagle, dog, plasma, sc, 120 mg/kg, mean±SD, n=10, genders combined, sc, 120 mg/kg, Day 1, read-out: Tmax (plasma concentrations of TXA peaked)",1.2 ± 0.42 h
same,Cmax,"[1]; both sexes, beagle, dog, plasma, sc, 120 mg/kg, mean±SD, n=10, genders combined, sc, 120 mg/kg, Day 1, read-out: mean peak levels (Cmax)",140 ± 19.2 µg/mL
same,AUC(0-t),"[1]; both sexes, beagle, dog, plasma, sc, 120 mg/kg, mean±SD, n=10, genders combined, sc, 120 mg/kg, Day 10, read-out: AUC0-24",468 ± 42.5 µg·h/mL
same,AUC(0-t),"[1]; both sexes, beagle, dog, plasma, sc, 120 mg/kg, mean±SD, n=10, genders combined, sc, 120 mg/kg, Day 10, read-out: AUC0-48",479 ± 44.2 µg·h/mL
same,AUC(0-t),"[1]; both sexes, beagle, dog, plasma, sc, 120 mg/kg, mean±SD, n=10, genders combined, sc, 120 mg/kg, Day 10, read-out: AUC0-72",484 ± 45.2 µg·h/mL
same,Tmax,"[1]; both sexes, beagle, dog, plasma, sc, 120 mg/kg, mean±SD, n=10, genders combined, sc, 120 mg/kg, Day 10, read-out: Tmax (mean peak concentrations reached)",1.1 ± 0.32 h
same,AUC(0-inf),"[1]; both sexes, beagle, dog, plasma, mean±SD, n=10, genders combined, sc, 120 mg/kg, Day 1",495 ± 36.8 µg·h/mL
same,clinical signs following dosing,beagle dog,at a similar incidence and severity
same,Percent free TXA,[2],100%
